# Columns and labels:
# mouse liver = assay: ANIT diet liver fibrosis model (Picrosirius red staining, qRT-PCR); settings: ANIT diet 4 weeks vs control diet
# Excerpt: Fibrosis is a universal pathological finding for chronic diseases in any organ(14) and it would be useful to identify biomarkers of fibrosis that are specific for an organ or be able to indicate their origin.
# Animals were housed in an Association for Assessment and Accreditation of Laboratory Animal Care International-accredited facility at Michigan State University and all procedures were approved by the Michigan State University Institutional Animal Care and Use Committee.
# (§1) Formalin fixed, paraffin embedded kidney sections were Masson Trichrome's stained and evaluated by a renal pathologist under a light microscope in blinded fashion relative to sample group. Percent area of fibrosis relative to the total section area was evaluated. Sirius red staining of the […] sections was performed at the Michigan State University Investigative Histopathology Laboratory.
# (§2) Total RNA was extracted from frozen kidney tissue using TRIzol reagent (Invitrogen). Following RNA concentration measurement by NanoDrop spectrophotometer (Thermo Fischer Scientific), 1 μg RNA was used for cDNA preparation using QuantiTect Reverse Transcription Kit from Qiagen (Valencia, Calif.). qRT-PCR using QuantiFast SYBR Green PCR Kit (Qiagen) was performed in 384-well plates on an Applied Biosystems 7900HT Fast Real-Time PCR System instrument with the following temperature profile: 3 min enzyme activation at 95° C. followed by 40 cycles of 95° C. for 10 s, and 55° C. for 30 s. Primer pairs used are listed in Supplementary Table 1. Gapdh was used as reference gene for normalization. The SDS 2.4 software (Applied Biosystems) was used to compute the threshold cycle (Cq) and the relative expression for an mRNA was assessed using the 2^−ΔCq method.
# [1] = system: kidney fibrosis after FA injection in mice; assay: Enalapril treatment in folic acid (FA) nephropathy model of kidney fibrosis (histology, qRT-PCR); assay type: in vivo, mouse; settings: day 14
# Experimental: Conversely, to test if the markers reflect recovery from fibrosis interventions on the renin-angiotensin system were used.
# Mice were sacrificed at 1, 2, 3, 7 and 14 days following administration. […] All mice were sacrificed at 14 days.
# as §1, §2
# [2] = enalapril 200 mg/l in drinking water after FA injection, kidney qRT-PCR vs control
SMILES,Mgp gene level (mouse liver),Scn7a gene level (mouse liver),Sytl2 gene level (mouse liver),collagen 1a1 gene expression (mouse liver),"kidney fibrosis development (histological assessment) ([1]; enalapril 200 mg/l continuously in drinking water after FA injection, vs plain water control)","reduction of collagen 1a1 mRNA expression ([1]; enalapril 200 mg/l in drinking water after FA injection, kidney qRT-PCR) [fold]","Cdh11 gene expression level [1, 2]","Gabrp gene expression level [1, 2]","Mrc1 gene expression level [1, 2]","Scn7a gene expression level [1, 2]","Smoc2 gene expression level [1, 2]"
"S=C=Nc1cccc2ccccc12 [ANIT, α-naphthylisothiocyanate]",significantly higher (p<0.05) gene levels,significantly higher (p<0.05) gene levels,significantly higher (p<0.05) gene levels,significantly increased collagen 1a1 gene expression,–,–,–,–,–,–,–
CCOC(=O)[C@H](CCc1ccccc1)N[C@@H](C)C(=O)N1CCC[C@H]1C(=O)O [enalapril],–,–,–,–,reduced kidney fibrosis development,~3,significant (p<0.05) decreases,significant (p<0.05) decreases,significant (p<0.05) decreases,significant (p<0.05) decreases,significant (p<0.05) decreases
